Measured values: publication PMC3269340, “Pharmacokinetics of memantine in rats and mice” (PLoS Currents, 2012)

Experiments:
Format in all cases: in vitro ADME
human PEPT2 = biological target: T1, human PEPT2 (Homo sapiens, UniProt Q16348); assay: Direct uptake transporter assay, PEPT2; conditions: for Accumulation in transporter transfected cells: PEPT2-transfected cells; for Accumulation in parental cells: parental CHO cells (PEPT2 line)
T1 construct: expressed in transfected cells; host or cells: CHO cells
T1 sequence (Q16348 1-729): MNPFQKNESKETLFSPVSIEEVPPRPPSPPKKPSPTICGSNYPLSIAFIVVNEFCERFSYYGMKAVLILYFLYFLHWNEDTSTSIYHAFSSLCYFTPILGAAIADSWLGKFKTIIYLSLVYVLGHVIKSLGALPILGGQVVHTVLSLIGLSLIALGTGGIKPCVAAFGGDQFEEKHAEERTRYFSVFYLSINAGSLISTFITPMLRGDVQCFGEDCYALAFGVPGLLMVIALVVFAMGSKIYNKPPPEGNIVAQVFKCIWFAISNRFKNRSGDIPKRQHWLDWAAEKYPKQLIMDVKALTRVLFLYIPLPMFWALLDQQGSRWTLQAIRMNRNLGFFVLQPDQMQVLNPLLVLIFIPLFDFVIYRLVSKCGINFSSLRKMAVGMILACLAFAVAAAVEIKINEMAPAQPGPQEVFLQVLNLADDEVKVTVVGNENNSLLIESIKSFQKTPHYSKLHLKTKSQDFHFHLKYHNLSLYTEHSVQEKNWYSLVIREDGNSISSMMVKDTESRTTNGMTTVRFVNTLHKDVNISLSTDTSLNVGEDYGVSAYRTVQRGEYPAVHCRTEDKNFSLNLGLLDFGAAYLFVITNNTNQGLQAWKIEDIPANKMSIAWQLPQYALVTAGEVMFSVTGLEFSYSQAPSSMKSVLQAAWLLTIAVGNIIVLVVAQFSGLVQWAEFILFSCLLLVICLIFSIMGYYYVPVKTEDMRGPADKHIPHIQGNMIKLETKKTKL
Experimental: (§1) To determine whether memantine is a substrate of the human OATP2B1 (OATP-B), OCT1, OCT2, OAT3, PEPT1, PEPT2 uptake transporters.
(§2) The potential for memantine to be a substrate of an uptake transporter was determined directly by comparing the uptake of memantine into cells expressing the selected uptake transporter with its uptake into control cells. Memantine was added to transporter-expressing and control cells at two concentrations (PEPT1 and PEPT2 100 and 300 µM, OCT1 and OCT2 50 and 100 µM, OATP2B1 100 and 300 µM), and incubated with cells for 2 and 20 min at 37±1°C (75 µL final incubation volume). The final concentrations of memantine were selected to be the IC50 of reporter substrate transport inhibition established in the indirect transporter assay and one order of magnitude lower. Incubations were carried out as described in the indirect uptake transporter assays. The concentration of memantine was determined by LC-MS/MS.

human OCT1 = biological target: T2, human OCT1 (Homo sapiens, UniProt O15245); assay: Direct uptake transporter assay, OCT1; conditions: for Accumulation in transporter transfected cells: OCT1-transfected cells; for Accumulation in parental cells: parental CHO cells (OCT1 line)
T2 construct: expressed in transfected cells; host or cells: CHO cells
T2 sequence (O15245 1-554): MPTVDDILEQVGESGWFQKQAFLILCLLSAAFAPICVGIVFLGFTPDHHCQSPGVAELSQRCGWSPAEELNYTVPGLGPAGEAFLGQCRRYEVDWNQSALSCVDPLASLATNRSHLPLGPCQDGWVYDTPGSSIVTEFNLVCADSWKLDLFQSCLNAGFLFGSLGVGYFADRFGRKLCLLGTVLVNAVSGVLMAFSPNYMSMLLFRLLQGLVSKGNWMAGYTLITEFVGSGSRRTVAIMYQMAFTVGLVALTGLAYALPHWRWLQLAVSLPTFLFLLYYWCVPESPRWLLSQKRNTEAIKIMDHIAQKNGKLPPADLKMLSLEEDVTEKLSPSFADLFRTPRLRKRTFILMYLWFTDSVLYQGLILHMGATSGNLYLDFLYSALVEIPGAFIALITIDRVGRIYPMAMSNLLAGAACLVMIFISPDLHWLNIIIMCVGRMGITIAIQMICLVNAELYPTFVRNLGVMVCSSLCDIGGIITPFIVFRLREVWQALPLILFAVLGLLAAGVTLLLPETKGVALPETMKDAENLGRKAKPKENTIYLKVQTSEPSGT
Experimental: as §1
as §2, with “The final concentrations of memantine were selected to be the IC50 of reporter substrate transport inhibition established in the indirect transporter assay and one order of magnitude lower.” left out

OCT2 = biological target: T3, OCT2 (Homo sapiens, UniProt O15244); assay: Direct uptake transporter assay, OCT2; conditions: for Accumulation in transporter transfected cells: OCT2-transfected cells; for Accumulation in parental cells: parental CHO cells (OCT2 line)
T3 construct: expressed in transfected cells; host or cells: CHO cells
T3 sequence (O15244 1-555): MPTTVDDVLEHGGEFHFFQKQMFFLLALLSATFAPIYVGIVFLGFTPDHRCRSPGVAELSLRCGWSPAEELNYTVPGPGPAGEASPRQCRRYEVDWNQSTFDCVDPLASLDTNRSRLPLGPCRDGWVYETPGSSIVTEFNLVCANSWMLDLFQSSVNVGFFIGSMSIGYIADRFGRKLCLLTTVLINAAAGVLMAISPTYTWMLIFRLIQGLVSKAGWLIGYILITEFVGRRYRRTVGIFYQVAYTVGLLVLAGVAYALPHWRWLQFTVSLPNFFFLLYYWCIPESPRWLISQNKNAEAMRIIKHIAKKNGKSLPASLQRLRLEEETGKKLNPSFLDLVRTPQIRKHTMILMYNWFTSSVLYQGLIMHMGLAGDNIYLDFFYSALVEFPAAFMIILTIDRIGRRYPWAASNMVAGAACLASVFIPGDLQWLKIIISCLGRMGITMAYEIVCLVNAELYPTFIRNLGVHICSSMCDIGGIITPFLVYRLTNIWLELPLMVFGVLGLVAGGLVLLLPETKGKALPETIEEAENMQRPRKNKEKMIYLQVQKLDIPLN
Experimental: as §1
as §2, with “The final concentrations of memantine were selected to be the IC50 of reporter substrate transport inhibition established in the indirect transporter assay and one order of magnitude lower.” left out

## CC12CC3CC(C)(C1)CC(N)(C3)C2 [memantine]
Human PEPT2; PEPT2, 100µM, 20 min
  Highest Fold Activation: 0.97 (100µM, 20 min)
Human PEPT2; 2 min, 100 µM
  Accumulation in transporter transfected cells: 937 pmol/mg
  Accumulation in parental cells: 965 pmol/mg
Human PEPT2; 2 min, 300 µM
  Accumulation in transporter transfected cells: 1871 pmol/mg
  Accumulation in parental cells: 2011 pmol/mg
Human PEPT2; 20 min, 100 µM
  Accumulation in transporter transfected cells: 897 pmol/mg
  Accumulation in parental cells: 1219 pmol/mg
Human PEPT2; 20 min, 300 µM
  Accumulation in transporter transfected cells: 1759 pmol/mg
  Accumulation in parental cells: 2056 pmol/mg
Human PEPT2; no preferential accumulation in transfected over parental cells
  substrate of PEPT2 uptake transporter: not a substrate
Human OCT1
  active transport by OCT1: not actively transported
Human OCT1; OCT1
  Highest Fold Activation: Not observed
Human OCT1; 2 min, 50 µM
  Accumulation in transporter transfected cells: 3818 pmol/mg
  Accumulation in parental cells: 3894 pmol/mg
Human OCT1; 2 min, 100 µM
  Accumulation in transporter transfected cells: 5878 pmol/mg
  Accumulation in parental cells: 6337 pmol/mg
Human OCT1; 20 min, 50 µM
  Accumulation in transporter transfected cells: 5540 pmol/mg
  Accumulation in parental cells: 5672 pmol/mg
Human OCT1; 20 min, 100 µM
  Accumulation in transporter transfected cells: 9190 pmol/mg
  Accumulation in parental cells: 9576 pmol/mg
OCT2
  substrate of OCT2 uptake transporter: appeared to be a substrate
OCT2; OCT2
  accumulation in transporter-transfected cells higher than in parental cells: > 1.5 fold
OCT2; OCT2, 100µM, 2 min
  Highest Fold Activation: 1.88 (100µM, 2 min)
OCT2; 2 min, 50 µM
  Accumulation in transporter transfected cells: 8492 pmol/mg
  Accumulation in parental cells: 5660 pmol/mg
OCT2; 2 min, 100 µM
  Accumulation in transporter transfected cells: 15071 pmol/mg
  Accumulation in parental cells: 8000 pmol/mg
OCT2; 20 min, 50 µM
  Accumulation in transporter transfected cells: 8866 pmol/mg
  Accumulation in parental cells: 5790 pmol/mg
OCT2; 20 min, 100 µM
  Accumulation in transporter transfected cells: 15495 pmol/mg
  Accumulation in parental cells: 8459 pmol/mg
